Values after ≈ are worked out from the molar mass of the structure shown. Where two headings read alike, the source gives them in different places.
Assays:
[1] = system: Staphylococcus aureus; assay: Activity of aqueous compositions on aerobic bacteria; settings: aqueous composition (100 g) containing 10 g active agent
Description: (§2) Aqueous compositions (100 g) containing 10 g of an active agent have been prepared.

[2] = system: Bacceroides species; assay: Activity of aqueous compositions on anaerobic bacteria; settings: aqueous composition (100 g) containing 10 g active agent
Description: as §2

[3] = system: Encamoeba dispar; assay: Activity of aqueous compositions on protozoa; settings: aqueous composition (100 g) containing 10 g active agent
Description: as §2

[4] = system: Balancidium coli; assay: Activity of aqueous compositions on protozoa; settings: aqueous composition (100 g) containing 10 g active agent
Description: as §2

[5] = system: Peptostreptococcus SPP; assay: Activity of aqueous compositions on anaerobic bacteria; settings: aqueous composition (100 g) containing 10 g active agent
Description: as §2

[6] = system: Peptococcus species; assay: as above; settings: aqueous composition (100 g) containing 10 g active agent
Description: as §2

[7] = system: Encamoeba histolytica; assay: Activity of aqueous compositions on protozoa; settings: aqueous composition (100 g) containing 10 g active agent
Description: as §2

[8] = system: Diencamoeba fragilis; assay: Activity of aqueous compositions on protozoa; settings: aqueous composition (100 g) containing 10 g active agent
Description: as §2

[9] = system: Septata intestinalis; assay: Activity of aqueous compositions on protozoa; settings: aqueous composition (100 g) containing 10 g active agent
Description: as §2

[10] = system: Fusobacterium SPP; assay: Activity of aqueous compositions on anaerobic bacteria; settings: aqueous composition (100 g) containing 10 g active agent
Description: as §2

[11] = system: Giarda lamblia; assay: Activity of aqueous compositions on protozoa; settings: aqueous composition (100 g) containing 10 g active agent
Description: as §2

[12] = system: Protens vulgaris; assay: Activity of aqueous compositions on aerobic bacteria; settings: aqueous composition (100 g) containing 10 g active agent
Description: as §2

[13] = system: Strongyloïdes stercoralis; assay: Activity of aqueous compositions on helminths; settings: aqueous composition (100 g) containing 10 g active agent
Description: as §2

[14] = system: Taenia saginata; assay: Activity of aqueous compositions on helminths; settings: aqueous composition (100 g) containing 10 g active agent
Description: as §2

[15] = system: Cryptosporidium parvum; assay: Activity of aqueous compositions on protozoa; settings: aqueous composition (100 g) containing 10 g active agent
Description: as §2

[16] = system: Candida Albicans; assay: Activity of aqueous compositions on fungus; settings: aqueous composition (100 g) containing 10 g active agent
Description: as §2

[17] = system: Trichomonas vaginalis; assay: Activity of aqueous compositions on protozoa; settings: aqueous composition (100 g) containing 10 g active agent
Description: as §2

[18] = system: Enterocytozoon bieneusi; assay: Activity of aqueous compositions on protozoa; settings: aqueous composition (100 g) containing 10 g active agent
Description: as §2

[19] = system: Taenia solium; assay: Activity of aqueous compositions on helminths; settings: aqueous composition (100 g) containing 10 g active agent
Description: as §2

[20] = system: Clostridum species; assay: Activity of aqueous compositions on anaerobic bacteria; settings: aqueous composition (100 g) containing 10 g active agent
Description: as §2

[21] = system: Endolimax nana; assay: Activity of aqueous compositions on protozoa; settings: aqueous composition (100 g) containing 10 g active agent
Description: as §2

[22] = system: Trichomonas intestinalis; assay: Activity of aqueous compositions on protozoa; settings: aqueous composition (100 g) containing 10 g active agent
Description: as §2

[23] = system: Bladtocystis hominis; assay: Activity of aqueous compositions on protozoa; settings: aqueous composition (100 g) containing 10 g active agent
Description: as §2

[24] = system: Hymenolepis nana; assay: Activity of aqueous compositions on helminths; settings: aqueous composition (100 g) containing 10 g active agent
Description: as §2

[25] = system: Escherichia coli; assay: Activity of aqueous compositions on aerobic bacteria; settings: aqueous composition (100 g) containing 10 g active agent
Description: as §2

[26] = system: Entamoeba coli; assay: Activity of aqueous compositions on protozoa; settings: aqueous composition (100 g) containing 10 g active agent
Description: as §2

[27] = system: Epidermophyton flocosum; assay: Activity of aqueous compositions on fungus; settings: aqueous composition (100 g) containing 10 g active agent
Description: as §2

[28] = system: Microsporum audovini; assay: Activity of aqueous compositions on fungus; settings: aqueous composition (100 g) containing 10 g active agent
Description: as §2

[29] = system: Isospora belli; assay: Activity of aqueous compositions on protozoa; settings: aqueous composition (100 g) containing 10 g active agent
Description: as §2

[30] = system: Trychophyton Mentagrophytes; assay: Activity of aqueous compositions on fungus; settings: aqueous composition (100 g) containing 10 g active agent
Description: as §2

[31] = Toxicity in cultures of 2.2.15 cells, neutral red dye uptake; type: cell-based; settings: human, 50 % inhibit of cell proliferation, read-out: cytotoxic concentration (CC 50)
Description: (§1) The protocol for essaying anti-HBV compounds in cultures of 2.2.15 cells can be briefly summarized as follows (Korba and Milman, 1991, Antiviral Res. 217:217) : • * Chronically HBV-producing human liver cells (Acs, et al, 1987, PNAS 84:4641) are seeded into 24 well tissue culture plates and grown to confluence. • * Test compounds are then added daily for a continuous 9 day period. Culture medium (changed daily during the treatment period) is collected and stored for analysis of extracellular (virion) HBV DNA after 0,3,6 and 9 days of treatment. • * Treated cells are lysed 24 hours following day 9 of treatment for the analysis of intracellular HBV genomic forms. • * HBV DNA is then analyzed in a quantitative and qualitative manner for overall levels of HBV DNA (both extracellular and intracellular DNA) and the relative rate of HBV replication (intracellular DNA). The protocol for determining toxicity of compounds in cultures of 2.2.15 cells can be briefly summarized as follows (Korba and Gerin, submited for publication) : • * 2.2.15 cells were grown to confluence in 96 well fat-bottomed tissue culture plates and treated with compounds (in 0.2 ml culture medium/well) as described above. Four concentrations of each compound were assayed, each in triplicate cultures, 3 to 10-fold steps. • * Untreated control cultures were maintained on each 96 well plate.

[32] = system: Trichomonas vaginalis; assay: In vitro studies against Trichomonas vaginalis; type: cell-based; settings: for MIC: in vitro, Trichomonas vaginalis, read-out: Minimum Inhibitory Concentration
[33] = system: HBV; assay: Antiviral activity against HBV replication in cultures of 2.2.15 cells; type: cell-based; settings: for selective index SI: HBV, CC 50/EC 50; for EC50: Hepatitis B virus, 216 h, read-out: effective concentration (EC 50)
Description: as §1

[34] = system: Ascaris lumbricoides; assay: Activity of aqueous compositions on helminths; settings: aqueous composition (100 g) containing 10 g active agent
Description: as §2

[35] = system: Anycylosloma duodenale; assay: Activity of aqueous compositions on helminths; settings: aqueous composition (100 g) containing 10 g active agent
Description: as §2

[36] = system: Necator americanus; assay: Activity of aqueous compositions on helminths; settings: aqueous composition (100 g) containing 10 g active agent
Description: as §2

[37] = system: Enterobius vermicularis; assay: Activity of aqueous compositions on helminths; settings: aqueous composition (100 g) containing 10 g active agent
Description: as §2

[38] = system: Trichuris trichiura; assay: Activity of aqueous compositions on helminths; settings: aqueous composition (100 g) containing 10 g active agent
Description: as §2

In the case of `CCCSc1ccc2nc(NC(=O)OC)[nH]c2c1` [Compound P3, Albendazole], the ACTIVITY [1] is reported as “No”, the ACTIVITY [2] is reported as “No” and the ACTIVITY [3] is reported as “No”. For the same compound, the ACTIVITY [4] was “No”, the ACTIVITY [5] was “No” and the ACTIVITY [6] was “No”. The ACTIVITY [7] was “No”, the ACTIVITY [8] was “No” and the ACTIVITY [9] was “No”. The ACTIVITY [10] was “No”, the ACTIVITY [11] was “No” and the ACTIVITY [12] was “No”. The ACTIVITY [13] was “No”, the ACTIVITY [14] was “No” and the ACTIVITY [15] was “No”. For the same compound, the ACTIVITY [16] was “No”, the ACTIVITY [17] was “No” and the ACTIVITY [18] was “No”. For the same compound, the ACTIVITY [19] was “No”, the ACTIVITY [20] was “No” and the ACTIVITY [21] was “No”. For the same compound, the ACTIVITY [22] was “No”, the ACTIVITY [23] was “No” and the ACTIVITY [24] was “No”. The ACTIVITY [25] was “No” and the ACTIVITY [26] was “No”.
In the case of `COC(=O)Nc1nc2ccc(C(=O)c3ccccc3)cc2[nH]1` [Compound P4, Mebendazole], the ACTIVITY [1] is reported as “No”, the ACTIVITY [2] is reported as “No” and the ACTIVITY [3] is reported as “No”. The ACTIVITY [4] was “No”, the ACTIVITY [5] was “No” and the ACTIVITY [27] was “No”. The ACTIVITY [6] was “No”, the ACTIVITY [7] was “No” and the ACTIVITY [8] was “No”. For the same compound, the ACTIVITY [28] was “No”, the ACTIVITY [9] was “No” and the ACTIVITY [29] was “No”. The ACTIVITY [10] was “No”, the ACTIVITY [11] was “No” and the ACTIVITY [12] was “No”. For the same compound, the ACTIVITY [13] was “No”, the ACTIVITY [14] was “No” and the ACTIVITY [15] was “No”. For the same compound, the ACTIVITY [16] was “No”, the ACTIVITY [17] was “No” and the ACTIVITY [18] was “No”. For the same compound, the ACTIVITY [19] was “No”, the ACTIVITY [20] was “No” and the ACTIVITY [21] was “No”. The ACTIVITY [22] was “No”, the ACTIVITY [23] was “No” and the ACTIVITY [24] was “No”. For the same compound, the ACTIVITY [25] was “No”, the ACTIVITY [26] was “No” and the ACTIVITY [30] was “No”.
For `O=C(Nc1ncc([N+](=O)[O-])s1)c1ccccc1O` [Compound A, 2-(hydroxy)-N-(5-nitro-2-thiazolyl) benzamide], the CC50 at 9 days [31] was > 1000 µg/mL, the onset of action ([32]; in vitro studies) was “substantially immediate action” and the MIC [32] was 1 to 1.25 µg/mL (≈ 3.77 to 4.71 µM). For the same compound, the “selective index SI” value [33] was “higher than 500” and the EC50 [33] was 1.8 ± 0.1 µg/mL (≈ 6.79 µM).
For `Cc1ncc([N+](=O)[O-])n1CCO` [Compound P5, Metronidazole], the ACTIVITY [1] was “No”, the ACTIVITY [34] was “No” and the ACTIVITY [35] was “No”. For the same compound, the ACTIVITY [27] was “No”, the ACTIVITY [36] was “No” and the ACTIVITY [28] was “No”. The ACTIVITY [9] was “No”, the ACTIVITY [12] was “No” and the ACTIVITY [13] was “No”. The ACTIVITY [37] was “No”, the ACTIVITY [14] was “No” and the ACTIVITY [15] was “No”. For the same compound, the ACTIVITY [16] was “No”, the ACTIVITY [18] was “No” and the ACTIVITY [19] was “No”. The ACTIVITY [23] was “No”, the ACTIVITY [24] was “No” and the ACTIVITY [38] was “No”. For the same compound, the ACTIVITY [25] was “No” and the ACTIVITY [30] was “No”.
For `Nc1ccn([C@H]2CC[C@@H](CO)O2)c(=O)n1` [Zalcitabine], the CC50 at 9 days [31] was 261 ± 24 µg/mL (≈ 1240 µM), the “selective index SI” value [33] was “about 145” and the EC50 ([33]; HBV replication in 2.2.15 cells, 9 day treatment) was 1.8 ± 0.2 µg/mL (≈ 8.52 µM).
Compound `CC(=O)Oc1ccccc1C(=O)Nc1ncc([N+](=O)[O-])s1` [Compound B, 2-(acetolyloxy)-N-(5-nitro 2-thiazolyl) benzamide] has an MIC [32] of 0.5 to 1.25 µg/mL (≈ 1.63 to 4.07 µM).

From patent EP0755386B1, “BENZAMIDE DERIVATIVE, COMPOSITIONS CONTAINING SAID DERIVATIVE AND USE THEREOF” (Romark Laboratories, L.C., priority 1994, dated 1995)
